Assays:
PI3K-p110β = PI3K-p110β (Homo sapiens, UniProt P42338); assay: Fold isoform selectivity from Ki determination, non-radiometric ADP-Glo assay (Proqinase); format: biochemical; details: class I PI3K isoforms
Source text: (§1) Fold isoform selectivity inhibition against class I PI3K isoforms, as confirmed following Ki determination using the non-radiometric ADP-Glo™ assay (Promega, Madison, Wis., USA) at Proqinase GmbH is listed below.

PI3K-p110δ = PI3K-p110δ (Homo sapiens, UniProt O00329); assay: as above; format: biochemical; details: class I PI3K isoforms
PI3K-p110δ, sequence (O00329 whole entry, canonical isoform): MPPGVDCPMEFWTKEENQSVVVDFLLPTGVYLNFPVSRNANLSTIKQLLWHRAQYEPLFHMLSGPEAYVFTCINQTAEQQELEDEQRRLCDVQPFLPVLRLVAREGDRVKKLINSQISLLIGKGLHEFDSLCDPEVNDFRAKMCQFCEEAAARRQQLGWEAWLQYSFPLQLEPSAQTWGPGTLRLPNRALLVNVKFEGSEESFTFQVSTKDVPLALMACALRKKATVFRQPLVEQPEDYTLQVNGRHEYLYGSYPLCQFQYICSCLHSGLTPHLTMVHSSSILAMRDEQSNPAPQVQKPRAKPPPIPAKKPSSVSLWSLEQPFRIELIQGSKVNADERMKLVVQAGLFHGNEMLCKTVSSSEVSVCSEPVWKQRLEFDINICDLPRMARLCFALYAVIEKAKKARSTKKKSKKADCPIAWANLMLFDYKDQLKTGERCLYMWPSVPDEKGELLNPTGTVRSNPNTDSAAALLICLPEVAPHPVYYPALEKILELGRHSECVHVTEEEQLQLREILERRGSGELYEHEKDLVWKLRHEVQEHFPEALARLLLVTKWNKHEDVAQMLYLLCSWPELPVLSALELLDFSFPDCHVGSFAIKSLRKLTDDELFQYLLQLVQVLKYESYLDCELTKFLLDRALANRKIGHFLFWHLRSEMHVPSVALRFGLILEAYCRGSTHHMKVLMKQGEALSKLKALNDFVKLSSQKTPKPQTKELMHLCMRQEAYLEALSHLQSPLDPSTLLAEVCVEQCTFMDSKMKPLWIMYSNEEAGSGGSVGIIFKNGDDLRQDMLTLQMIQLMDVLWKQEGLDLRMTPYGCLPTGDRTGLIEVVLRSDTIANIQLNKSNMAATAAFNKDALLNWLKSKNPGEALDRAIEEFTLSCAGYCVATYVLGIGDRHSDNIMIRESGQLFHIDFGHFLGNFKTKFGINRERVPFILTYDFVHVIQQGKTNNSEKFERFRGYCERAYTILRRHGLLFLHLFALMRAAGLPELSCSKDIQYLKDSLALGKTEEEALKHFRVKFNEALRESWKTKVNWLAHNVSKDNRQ
PI3K-p110δ, sequence (P27986 whole entry partner, canonical isoform): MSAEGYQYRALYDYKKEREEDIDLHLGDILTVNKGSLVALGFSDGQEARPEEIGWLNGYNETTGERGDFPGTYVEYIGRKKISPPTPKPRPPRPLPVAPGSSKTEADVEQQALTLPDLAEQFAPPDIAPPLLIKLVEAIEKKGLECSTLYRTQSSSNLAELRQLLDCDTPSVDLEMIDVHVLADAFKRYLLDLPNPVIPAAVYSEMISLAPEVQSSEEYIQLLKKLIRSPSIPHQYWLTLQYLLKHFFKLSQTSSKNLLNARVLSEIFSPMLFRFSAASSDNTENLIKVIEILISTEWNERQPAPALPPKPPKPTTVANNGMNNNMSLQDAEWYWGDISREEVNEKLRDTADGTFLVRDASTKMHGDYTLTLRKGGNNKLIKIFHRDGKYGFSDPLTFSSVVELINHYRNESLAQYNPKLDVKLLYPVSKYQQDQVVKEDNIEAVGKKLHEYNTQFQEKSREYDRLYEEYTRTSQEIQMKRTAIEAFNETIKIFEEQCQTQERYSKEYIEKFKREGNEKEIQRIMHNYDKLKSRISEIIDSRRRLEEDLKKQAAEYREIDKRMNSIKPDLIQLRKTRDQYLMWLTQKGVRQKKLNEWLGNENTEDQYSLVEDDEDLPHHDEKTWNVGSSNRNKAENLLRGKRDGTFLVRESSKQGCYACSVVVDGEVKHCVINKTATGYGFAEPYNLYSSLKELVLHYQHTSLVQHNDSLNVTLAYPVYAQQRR
Source text: as §1

[1] = Rodent pharmacokinetics: oral bioavailability and clearance, plasma; format: in vivo, mouse; details: for clearance: male, CD1, mouse, iv
Method: The following protocol was used to determine oral bioavailability and clearance.
(§2) The results are shown below. • Species=male mouse; • Strain=CD1, • n=3 male mice per time point per route; • Terminal blood sampling at 8 time points (5 min, 10 min, 0.5 hr, 1 hr, 3 hr, 6 hr, 8 hr and, 24 hr); • Collection of plasma, bio-analysis and report of pharmacokinetic parameters.
Formulation: 10% DMSO, 15% Cremophor, 75% Saline
Dosing: 10 mg/kg P.O. and 5 mg/kg I.V.
as §2, with “parameters. • Formulation: 10% DMSO, 90 & saline” for “parameters.”

[2] = IV, 5 mg/kg, male CD1 mouse plasma, free base
[3] = PO, 10 mg/kg, male CD1 mouse plasma, free base

PI3K-p110β, sequence (P42338 whole entry, canonical isoform): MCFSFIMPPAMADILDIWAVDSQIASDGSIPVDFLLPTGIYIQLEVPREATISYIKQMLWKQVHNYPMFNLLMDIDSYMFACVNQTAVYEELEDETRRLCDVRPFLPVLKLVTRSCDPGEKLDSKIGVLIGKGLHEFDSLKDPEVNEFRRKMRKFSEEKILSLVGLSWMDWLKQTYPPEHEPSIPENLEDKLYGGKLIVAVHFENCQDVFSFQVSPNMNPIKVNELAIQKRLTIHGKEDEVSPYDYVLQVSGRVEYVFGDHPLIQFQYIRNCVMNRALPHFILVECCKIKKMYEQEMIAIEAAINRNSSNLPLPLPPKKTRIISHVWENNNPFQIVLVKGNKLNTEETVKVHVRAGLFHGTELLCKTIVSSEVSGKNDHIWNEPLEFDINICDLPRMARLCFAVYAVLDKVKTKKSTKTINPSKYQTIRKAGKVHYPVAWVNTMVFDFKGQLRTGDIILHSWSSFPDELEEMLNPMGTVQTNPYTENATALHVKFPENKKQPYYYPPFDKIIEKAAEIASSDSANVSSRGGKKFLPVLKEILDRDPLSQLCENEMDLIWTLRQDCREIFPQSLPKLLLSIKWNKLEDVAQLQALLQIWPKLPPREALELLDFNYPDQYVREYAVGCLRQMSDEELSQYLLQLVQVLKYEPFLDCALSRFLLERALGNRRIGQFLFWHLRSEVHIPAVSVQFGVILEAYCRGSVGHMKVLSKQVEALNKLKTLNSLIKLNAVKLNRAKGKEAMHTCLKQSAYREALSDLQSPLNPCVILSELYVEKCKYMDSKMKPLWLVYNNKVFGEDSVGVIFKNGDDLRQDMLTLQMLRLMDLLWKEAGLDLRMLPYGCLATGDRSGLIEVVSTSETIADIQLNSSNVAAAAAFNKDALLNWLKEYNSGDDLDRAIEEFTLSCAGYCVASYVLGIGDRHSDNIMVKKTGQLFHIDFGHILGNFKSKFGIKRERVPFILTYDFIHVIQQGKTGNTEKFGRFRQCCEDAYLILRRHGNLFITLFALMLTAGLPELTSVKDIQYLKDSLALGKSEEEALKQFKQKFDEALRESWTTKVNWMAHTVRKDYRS
PI3K-p110β, sequence (P27986 whole entry partner, canonical isoform): as the sequence (P27986 whole entry partner, canonical isoform) above

SMILES: Fc1cc(-c2nc(N3CCOCC3)c3oc4ncc(CN5CCC6(CC5)COC6)cc4c3n2)c2cc[nH]c2c1 [Example B, 4-(6-Fluoro-1H-indol-4-yl)-6-(morpholin-4-yl)-12-{2-oxa-7-azaspiro[3.5]nonan-7-ylmethyl}-8-oxa-3,5,10-triazatricyclo[7.4.0.0^2,7]trideca-1(13),2(7),3,5,9,11-hexaene]
- FOLD Ki p110β/p110α (PI3K-p110β): ** (** ≥10x < 50x)
- FOLD Ki p110δ/p110α (PI3K-p110δ): *** (*** ≥50x < 100x)

SMILES: Fc1ccc2[nH]ccc2c1-c1nc(N2CCOCC2)c2oc3ncc(CN4CCC5(CC4)COC5)cc3c2n1 [Example D, 4-(5-Fluoro-1H-indol-4-yl)-6-(morpholin-4-yl)-12-{2-oxa-7-azaspiro[3.5]nonan-7-ylmethyl}-8-oxa-3,5,10-triazatricyclo[7.4.0.0^2,7]trideca-1(13),2(7),3,5,9,11-hexaene]
- FOLD Ki p110β/p110α (PI3K-p110β): *** (*** ≥50x < 100x)
- FOLD Ki p110δ/p110α (PI3K-p110δ): *** (*** ≥50x < 100x)

SMILES: COC1CN(Cc2cnc3oc4c(N5CCOCC5)nc(-c5c(F)ccc6[nH]ccc56)nc4c3c2)C1 [Example E, 4-(5-Fluoro-1H-indol-4-yl)-12-[(3-methoxyazetidin-1-yl)methyl]-6-(morpholin-4-yl)-8-oxa-3,5,10-triazatricyclo[7.4.0.0^2,7]trideca-1(13),2(7),3,5,9,11-hexaene]
- FOLD Ki p110β/p110α (PI3K-p110β): ** (** ≥10x < 50x)
- FOLD Ki p110δ/p110α (PI3K-p110δ): ** (** ≥10x < 50x)
- AUC [1, 2]: 2930 ng·h/mL
- AUC(0-inf) [1, 2]: 3010 ng·h/mL
- AUClast [1, 2]: 2930 ng·h/mL
- Cmax [1, 2]: 3620 ng/mL
- Tmax [1, 2]: 4.8 min
- Vd [1, 2]: 1.29 L/kg
- half-life ([1]; IV, 5 mg/kg, male CD1 mouse plasma, free base, 10% DMSO, 15% Cremophor, 75% Saline): 33 min
- AUC [1, 3]: 2780 ng·h/mL
- AUC(0-inf) [1, 3]: 2830 ng·h/mL
- AUC(0-t) [1, 3]: 2780 ng·h/mL
- Cmax [1, 3]: 1290 ng/mL
- Tmax [1, 3]: 30 min
- half-life ([1]; PO, 10 mg/kg, male CD1 mouse plasma, free base, 10% DMSO, 15% Cremophor, 75% Saline): 80.4 min
- clearance ([1]; plasma, 5 mg/kg, male CD1 mouse plasma, free base): 28 mL/min/kg
- bioavailability ([1]; plasma, oral, 10 mg/kg P.O. and 5 mg/kg I.V., male CD1 mouse, free base, 10% DMSO, 15% Cremophor, 75% Saline, read-out: Oral bioavailability (F)): 47%

SMILES: COC1CN(Cc2cnc3oc4c(N5CCOCC5)nc(-c5cccc6[nH]c(C(F)(F)F)cc56)nc4c3c2)C1 [Example H, 12-[(3-Methoxyazetidin-1-yl)methyl]-6-(morpholin-4-yl)-4-[2-(trifluoromethyl)-1H-indol-4-yl]-8-oxa-3,5,10-triazatricyclo[7.4.0.0^2,7]trideca-1(13),2(7),3,5,9,11-hexaene]
- FOLD Ki p110β/p110α (PI3K-p110β): * (* <10x)
- FOLD Ki p110δ/p110α (PI3K-p110δ): * (* <10x)

SMILES: c1cc(-c2nc(N3CCOCC3)c3oc4ncc(CN5CCCCC5)cc4c3n2)c2cc[nH]c2c1 [Example I in WO 2011/021038, reference compound]
- clearance ([1]; plasma, 5 mg/kg, 5 mg/kg I.V., male CD1 mouse, mesylate salt, 10% DMSO, 90 & saline): 66 mL/min/kg

SMILES: COC1CN(Cc2cnc3oc4c(N5CCOCC5)nc(-c5cc(F)cc6[nH]ccc56)nc4c3c2)C1 [Example I, 4-(6-Fluoro-1H-indol-4-yl)-12-[(3-methoxyazetidin-1-yl)methyl]-6-(morpholin-4-yl)-8-oxa-3,5,10-triazatricyclo[7.4.0.0^2,7]trideca-1(13),2(7),3,5,9,11-hexaene]
- FOLD Ki p110β/p110α (PI3K-p110β): *** (*** ≥50x < 100x)
- FOLD Ki p110δ/p110α (PI3K-p110δ): *** (*** ≥50x < 100x)

SMILES: COC1CN(Cc2cnc3sc4c(N5CCOCC5)nc(-c5c(F)ccc6[nH]ccc56)nc4c3c2)C1 [Example K, 4-(5-Fluoro-1H-indol-4-yl)-12-[(3-methoxyazetidin-1-yl)methyl]-6-(morpholin-4-yl)-8-thia-3,5,10-triazatricyclo[7.4.0.0^2,7]trideca-1(13),2(7),3,5,9,11-hexaene]
- FOLD Ki p110β/p110α (PI3K-p110β): * (* <10x)
- FOLD Ki p110δ/p110α (PI3K-p110δ): * (* <10x)

SMILES: COC1CN(Cc2cnc3oc4c(N5CCOCC5)nc(-c5cc(C(F)(F)F)cc6[nH]ccc56)nc4c3c2)C1 [Example L, 12-[(3-Methoxyazetidin-1-yl)methyl]-6-(morpholin-4-yl)-4-[6-(trifluoromethyl)-1H-indol-4-yl]-8-oxa-3,5,10-triazatricyclo[7.4.0.0^2,7]trideca-1(13),2(7),3,5,9,11-hexaene]
- FOLD Ki p110β/p110α (PI3K-p110β): * (* <10x)
- FOLD Ki p110δ/p110α (PI3K-p110δ): * (* <10x)

SMILES: COC1CN(Cc2cnc3oc4c(N5CCOCC5)nc(-c5ccc(F)c6[nH]ccc56)nc4c3c2)C1 [Example N, 4-(7-Fluoro-1H-indol-4-yl)-12-[(3-methoxyazetidin-1-yl)methyl]-6-(morpholin-4-yl)-8-oxa-3,5,10-triazatricyclo[7.4.0.0^2,7]trideca-1(13),2(7),3,5,9,11-hexaene]
- FOLD Ki p110β/p110α (PI3K-p110β): * (* <10x)
- FOLD Ki p110δ/p110α (PI3K-p110δ): ** (** ≥10x < 50x)

SMILES: Fc1ccc2[nH]ccc2c1-c1nc(N2CCOCC2)c2oc3ncc(N4CCOCC4)cc3c2n1 [Example O, 4-(5-Fluoro-1H-indol-4-yl)-6,12-bis(morpholin-4-yl)-8-oxa-3,5,10-triazatricyclo[7.4.0.0^2,7]trideca-1(9),2,4,6,10,12-hexaene]
- FOLD Ki p110β/p110α (PI3K-p110β): * (* <10x)
- FOLD Ki p110δ/p110α (PI3K-p110δ): * (* <10x)

SMILES: CCN1CCN(Cc2cnc3oc4c(N5CCOCC5)nc(-c5c(F)ccc6[nH]ccc56)nc4c3c2)CC1=O [Example P]
- FOLD Ki p110β/p110α (PI3K-p110β): * (* <10x)
- FOLD Ki p110δ/p110α (PI3K-p110δ): ** (** ≥10x < 50x)

SMILES: COC1CN(Cc2cnc3oc4c(N5CCOCC5)nc(-c5cccc6[nH]cc(F)c56)nc4c3c2)C1 [Example Q]
- FOLD Ki p110β/p110α (PI3K-p110β): ** (** ≥10x < 50x)
- FOLD Ki p110δ/p110α (PI3K-p110δ): ** (** ≥10x < 50x)

— patent publication US10377764B2, “Tricyclic heterocyclic compounds as phosphoinositide 3-kinase inhibitors” (Karus Therapeutics Limited, priority 2015, dated 2019)
